{
  "source": "patent US7101667B2",
  "about": "“Lanthanide binding tags” (Massachusetts Institute of Technology, priority 2001, dated 2006)",
  "key": {"[1]": {"experiment": "Steady-state terbium fluorescence of LBT-S-peptide fusions compared to LBT1", "type": "physicochemical", "from_the_text": "Steady-state fluorescence experiments of the LBT-S-peptide fusions indicated minimal impact of the fusion on the terbium fluorescence compared to LBT1 (see Table 2)."}, "[2]": {"experiment": "Tb^3+ affinity of LBT-S-peptide fusions by isothermal titration calorimetry", "type": "binding", "from_the_text": "The affinity of the LBT site for terbium in the context of the fusion peptide was also unchanged when compared with the unmodified LBT sequences with affinities in the low μM range."}, "[3]": {"experiment": "Tb^3+ binding affinity of the disulfide constrained LBT", "method": "Affinity is determined by titration with lanthanide and detection using fluorescence, circular dichroism, NMR or calorimetry. In the case of tightly binding sequences, it may be necessary to employ competition experiments.\nThe disulfide constained LBT, ACA-[…]-CAA (known as CC2) binds to Tb^3+ with a KD of 300 nM, an order of magnitude more tightly than other reported Ca-binding peptides. (Kanellis, et al. Arch. Biochem. Biophys. 1983, 220, 530-540; Lopez, et al. Proc. Natl. Acad. Sci. USA 2002, 99, 1298-1303)."}, "[4]": {"experiment": "Lanthanide affinity of free LBT and HIS-LBT-Ub by calorimetry", "type": "binding", "conditions": "read-out: KD for lanthanide ions", "from_the_text": "The purified LBT-protein conjugates were further studied to assess whether the fluorescence and binding properties of the LBT were preserved in the protein conjugates."}, "LBT-GPPP-S-Peptide": {"molecular_target": "T1, LBT-GPPP-S-Peptide", "T1 chain": "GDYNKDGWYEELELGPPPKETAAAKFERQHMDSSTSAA"}, "RNAse S-protein": {"molecular_target": "T2, RNAse S-protein (bovine, UniProt P61823 47-150)", "T2 construct": "range 21-124; Numbers count on mature RNAse A; also called Pro-S", "T2 sequence (looked up)": "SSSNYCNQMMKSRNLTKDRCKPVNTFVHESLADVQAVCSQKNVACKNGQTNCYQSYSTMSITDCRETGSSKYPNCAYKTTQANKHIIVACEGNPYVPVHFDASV", "experiment": "isothermal titration calorimetry"}, "[5]": {"conditions": "read-out: KD Tb^3+ S-Peptide, fusion peptide alone"}, "[6]": {"conditions": "read-out: KD Tb^3+ [S-Peptide/S-protein], peptide complexed with S-protein"}},
  "data": [
    {"molecule": "CSCC[C@H](NC(=O)[C@H](Cc1c[nH]cn1)NC(=O)[C@H](CCC(N)=O)NC(=O)[C@H](CCCNC(=N)N)NC(=O)[C@H](CCC(=O)O)NC(=O)[C@H](Cc1ccccc1)NC(=O)[C@H](CCCCN)NC(=O)[C@H](C)NC(=O)[C@H](C)NC(=O)[C@H](C)NC(=O)[C@@H](NC(=O)[C@H](CCC(=O)O)NC(=O)[C@H](CCCCN)NC(=O)[C@@H]1CCCN1C(=O)[C@@H]1CCCN1C(=O)[C@@H]1CCCN1C(=O)CNC(=O)[C@H](CC(C)C)NC(=O)[C@H](CCC(=O)O)NC(=O)[C@H](CC(C)C)NC(=O)[C@H](CCC(=O)O)NC(=O)[C@H](CCC(=O)O)NC(=O)[C@H](Cc1ccc(O)cc1)NC(=O)[C@H](Cc1c[nH]c2ccccc12)NC(=O)CNC(=O)[C@H](CC(=O)O)NC(=O)[C@H](CCCCN)NC(=O)[C@H](CC(N)=O)NC(=O)[C@H](Cc1ccc(O)cc1)NC(=O)[C@H](CC(=O)O)NC(=O)CN)[C@@H](C)O)C(=O)N[C@@H](CC(=O)O)C(=O)N[C@@H](CO)C(=O)N[C@@H](CO)C(=O)N[C@H](C(=O)N[C@@H](CO)C(=O)N[C@@H](C)C(=O)N[C@@H](C)C(=O)O)[C@@H](C)O", "note": "[LBT-GPPP-S-Peptide]", "values": [
      {"measurement": "Fluorescence Relative to LBT1", "setting": "[1]", "value": 96, "unit": "%"},
      {"measurement": "Kd", "setting": "[2]; [5]", "value": 6.6, "unit": "µM"},
      {"measurement": "Kd", "setting": "[2]; [6]", "value": 6.7, "unit": "µM"}
    ]},
    {"molecule": "CSCC[C@H](NC(=O)[C@H](Cc1c[nH]cn1)NC(=O)[C@H](CCC(N)=O)NC(=O)[C@H](CCCNC(=N)N)NC(=O)[C@H](CCC(=O)O)NC(=O)[C@H](Cc1ccccc1)NC(=O)[C@H](CCCCN)NC(=O)[C@H](C)NC(=O)[C@H](C)NC(=O)[C@H](C)NC(=O)[C@@H](NC(=O)[C@H](CCC(=O)O)NC(=O)[C@H](CCCCN)NC(=O)[C@@H]1CCCN1C(=O)[C@@H]1CCCN1C(=O)[C@H](CC(C)C)NC(=O)[C@H](CCC(=O)O)NC(=O)[C@H](CC(C)C)NC(=O)[C@H](CCC(=O)O)NC(=O)[C@H](CCC(=O)O)NC(=O)[C@H](Cc1ccc(O)cc1)NC(=O)[C@H](Cc1c[nH]c2ccccc12)NC(=O)CNC(=O)[C@H](CC(=O)O)NC(=O)[C@H](CCCCN)NC(=O)[C@H](CC(N)=O)NC(=O)[C@H](Cc1ccc(O)cc1)NC(=O)[C@H](CC(=O)O)NC(=O)CN)[C@@H](C)O)C(=O)N[C@@H](CC(=O)O)C(=O)N[C@@H](CO)C(=O)N[C@@H](CO)C(=O)N[C@H](C(=O)N[C@@H](CO)C(=O)N[C@@H](C)C(=O)N[C@@H](C)C(=O)O)[C@@H](C)O", "note": "[LBT-PP-S-Peptide]", "values": [
      {"measurement": "Fluorescence Relative to LBT1", "setting": "[1]", "value": 86, "unit": "%"},
      {"measurement": "Kd", "setting": "[2]; [5]", "value": 3.3, "unit": "µM"},
      {"measurement": "Kd", "setting": "[2]; [6]", "value": 9.6, "unit": "µM"}
    ]},
    {"molecule": "ACA-DYNKDGWYEELE-CAA [CC2, cysteine constrained variant of LBT1]", "values": [
      {"measurement": "Kd", "setting": "[3]", "value": 0.3, "unit": "µM"}
    ]},
    {"molecule": "GDYNKDGWYEELEL [LBT1]", "values": [
      {"measurement": "Kd", "setting": "[4]", "value": 5, "unit": "µM"},
      {"measurement": "KD Tb^3+ S-Peptide", "setting": "[2]; fusion peptide alone", "value": "low μM"}
    ]},
    {"molecule": "RNAse S-protein (protein) SSSNYCNQMMKSRNLTKDRCKPVNTFVHESLADVQAVCSQKNVACKNGQTNCYQSYSTMSITDCRETGSSKYPNCAYKTTQANKHIIVACEGNPYVPVHFDASV", "values": [
      {"measurement": "catalytic activity of the reconstituted enzymes (cleavage of a fluorescent RNA substrate)", "setting": "LBT-PP-S-Peptide", "value": "the S-protein/LBT-S-peptide construct has similar catalytic activity to the native RNAse S in the absence of Tb^+3"},
      {"measurement": "catalytic activity of the reconstituted enzymes (cleavage of a fluorescent RNA substrate)", "setting": "LBT-GPPP-S-Peptide", "value": "the S-protein/LBT-S-peptide construct has similar catalytic activity to the native RNAse S in the absence of Tb^+3"}
    ]},
    {"molecule": "GDYNKDGWYEELELGPPPKETAAAKFERQHMDSSTSAA (also called LBT-S-peptide fusion; LBT tagged S-peptide analog)", "note": "[LBT-GPPP-S-Peptide]", "values": [
      {"measurement": "Kd", "setting": "RNAse S-protein", "value": 0.3, "unit": "µM"}
    ]}
  ]
}
